# Data from patent publication US20160279166A1, “TREATING AGENT AND TREATING METHOD FOR THE EXAMINATION OR OPERATION OF THE LARGE INTESTINE” (KYOWA CHEMICAL INDUSTRY CO., LTD., priority 2013, published 2016).
# Experiments:
# rats [1] = experiment: Laparotomy of rats after 9 hours: remaining feces, dry feces and water content in the large intestinal tract; assay type: in vivo, rat
# Method: (§1) Magnesium oxide particles and water-soluble dietary fibers were administered to rats for animal testing to check the defecation states after 9 hours. Laparotomy was made on the rats after 9 hours to measure the amount of remaining feces, the amount of dry feces and the content of water in the intestinal tract.
# (§2) A preparation containing 1.4 g of magnesium oxide particles and 9 g of water-soluble dietary fiber powders was used to administer 700 mg/kg of the magnesium oxide particles and 4,500 mg/kg of the water-soluble dietary fiber powders to rats. The magnesium oxide in use was magnesium oxide particles having an average secondary particle diameter specified in the present invention. The water-soluble dietary fibers in use were reduced indigestible dextrin specified in the present invention.
# The total suspension liquid doses to test groups were fixed. When the magnesium oxide particles and a mixture of the magnesium oxide particles and the water-soluble dietary fiber powders were administered, 5 ml/kg of them was administered, and when they were not administered, 0.05% CMC-NA was administered. When the water-soluble dietary fiber liquid was administered, 10 ml/kg of it was administered and when the water-soluble dietary fiber liquid was not administered, 10 ml/kg of water was administered. The defecation state was checked after 9 hours, and the amount of remaining feces, the amount of dry feces and the content of water in the large intestine of each rat were measured to evaluate the effects on the properties of feces of the magnesium oxide particles and the water-soluble dietary fibers.
# rats [2] = experiment: Defecation state (diarrhea) of rats after 9 hours with varied amount of ingested water; assay type: in vivo, rat; conditions: oral, magnesium oxide 700 mg/kg
# Method: Magnesium oxide particles were administered to rats for animal testing to check the defecation states after 9 hours. At this point, the amount of water to be taken was increased and decreased to evaluate the effect on laxative action of the amount of water to be taken.
# A preparation containing magnesium oxide as an effective component and crystalline cellulose, croscarmellose and calcium stearate as additives was used. […] The magnesium oxide in use is magnesium oxide particles having an average secondary particle diameter specified in the present invention.
# The defecation state of each test group was checked after 9 hours so as to calculate the water-like feces excretion rate and evaluate the effect on the properties of feces of the amount of ingested water when the magnesium oxide particles were administered.
# large intestine = experiment: CT examination of the large intestine: evaluation of remaining feces, remaining water and overall evaluation after pretreatment; assay type: in vivo, human; conditions: conclusion from CT overall evaluation
# Method: The large intestine is divided into 6 parts in order to evaluate remaining feces and remaining water in each part in five stages from an image of the large intestine at a supine position (SU) and a lateral recumbent position (PR) obtained from CT examination. Further, overall evaluation was carried out from the obtained evaluation results.
# The large intestine is divided into the following six parts.
# C: appendix A: ascending colon T: transverse colon D: descending colon S: sigmoid colon R: rectum
# The remaining feces were evaluated in five stages according to the existence of movement and a shape change.
# 0: difficult to evaluate 1: sticks to a mucous membrane 2: no movement and no shape change 3: moved and changed in shape 4: almost no remaining feces
# The remaining water was evaluated in the following five stages according to its proportion to the circumference.
# 0: 4/4 of the circumference is under water (complete submersion). 1: 3/4 of the circumference is under water 2: 2/4 of the circumference is under water 3: 1/4 of the circumference is under water (submersion of semilunar pleat) 4: almost no submersion
# The overall evaluation was made in the following five stages.
# 0: not useful 1: it cannot be said whether it is useful or not 2: rather useful 3: useful 4: very useful
# 3 g of MgO for each examination was divided in two portions to be administered as the pretreatment of the examination. […]
# rats [3] = experiment: Defecation state (soft stool) of rats 9 hours after administration; assay type: in vivo, rat; conditions: oral, after 9 hours, magnesium oxide 700 mg/kg, fiber powders 4500 mg/kg, fiber liquid 4500 mg/kg as administered
# Method: as §1, §2
# The total suspension liquid doses to test groups were fixed. […] The defecation state was checked after 9 hours, and the amount of remaining feces, the amount of dry feces and the content of water in the large intestine of each rat were measured to evaluate the effects on the properties of feces of the magnesium oxide particles and the water-soluble dietary fibers.
# [4] = large intestinal tract after 9 hours, magnesium oxide 700 mg/kg, fiber powders 4500 mg/kg, fiber liquid 4500 mg/kg as administered
smiles,measurement,setting,value
"[O]=[Mg] [Magnesium oxide particles, magnesium oxide]",amount of dry feces (in words),rats [1]; after 9 hours,reduced
same,content of water (in words),rats [1]; after 9 hours,increased
same,Amount of dry feces,rats [1]; [4],12%
same,Amount of remaining feces,rats [1]; [4],3.69 g
same,Content of water,rats [1]; [4],88%
same,Proportion causing diarrhea (number of rats suffering from diarrhea/number of test rats),rats [2]; water 1 mL/kg,3/5
same,Proportion causing diarrhea (number of rats suffering from diarrhea/number of test rats),rats [2]; water 10 mL/kg,4/5
same,Proportion causing diarrhea (number of rats suffering from diarrhea/number of test rats),rats [2]; water 35 mL/kg,5/5
same,effectiveness as a treating agent for the examination or operation of the large intestine (in words),large intestine,extremely effective
same,Proportion having soft stool (number of rats having soft stool/number of test rats),rats [3],3/5
